Laboratory results from patent US9695133B2, “Quinazolinone-based oncogenic-RAS-selective lethal compounds and their use” (THE TRUSTEES OF COLUMBIA UNIVERSITY IN THE CITY OF NEW YORK, priority 2012, dated 2017).

Test system: HT-1080 cells
Assay: Metabolite profiling (LC-MS/MS) upon erastin treatment
Assay type: cell-based, human
Details: 5 μg/mL erastin 5 h
Description: 2 million HT-1080 cells were seeded in 10 cm culture dishes. […] 4 mL of cold 80% methanol was added to the cell monolayer to extract polar metabolites using a cell scraper. The cell lysate/methanol mixture was transferred to a 15 mL tube and centrifuged at 2,000×g at 4° C. for 10 minutes to pellet debris and proteins. The supernatant was transferred to a new tube and stored at −80° C. for liquid chromatography-mass spectrometry/mass spectrometry (LC-MS/MS) analysis. For lipid extract preparation, 3 mL of cold 100% isopropanol was added to the cell monolayer to scrape out cells. The resulting cell lysate/isopropanol mixture was transferred to a new 15 mL tube and centrifuged at 2,000×g at 4° C. for 10 minutes. The cleared supernatant was transferred to a new tube and stored at −20° C. for LC-MS/MS analysis.
The metabolite extract was subjected to LC-MS/MS analysis to determine the quantity of each metabolite in each sample.

CCOc1ccccc1-n1c(C(C)N2CCN(C(=O)COc3ccc(Cl)cc3)CC2)nc2ccccc2c1=O (stereo not drawn) [erastin]
G6P Erastin/DMSO: 1.134
G6P log2 (Erastin/DMSO): 0.181
GABA Erastin/DMSO: 1.173
GABA log2 (Erastin/DMSO): 0.2297
GDP Erastin/DMSO: 0.8497
GDP log2 (Erastin/DMSO): −0.235
GMP Erastin/DMSO: 1.066
GMP log2 (Erastin/DMSO): 0.09204
IMP Erastin/DMSO: 1.065
IMP log2 (Erastin/DMSO): 0.09035
N-carbomoyl-beta-alanine Erastin/DMSO: 0.7958
N-carbomoyl-beta-alanine log2 (Erastin/DMSO): −0.3296
NAD Erastin/DMSO: 0.9157
NAD log2 (Erastin/DMSO): −0.127
NADH Erastin/DMSO: 0.8051
NADH log2 (Erastin/DMSO): −0.3128
NMMA Erastin/DMSO: 0.9886
NMMA log2 (Erastin/DMSO): −0.01661
OH-phenylpyruvate Erastin/DMSO: 0.8442
OH-phenylpyruvate log2 (Erastin/DMSO): −0.2443
PEP Erastin/DMSO: 1.147
PEP log2 (Erastin/DMSO): 0.1975
SDMA Erastin/DMSO: 0.9505
SDMA log2 (Erastin/DMSO): −0.07329
UDP Erastin/DMSO: 1.002
UDP log2 (Erastin/DMSO): 0.002894
UDP-galactose/UDP-glucose Erastin/DMSO: 0.9003
UDP-galactose/UDP-glucose log2 (Erastin/DMSO): −0.1516
UDP-glucuronate Erastin/DMSO: 0.9339
UDP-glucuronate log2 (Erastin/DMSO): −0.09865
UMP Erastin/DMSO: 1.049
UMP log2 (Erastin/DMSO): 0.06891
XMP Erastin/DMSO: 0.8599
XMP log2 (Erastin/DMSO): −0.2178
acetylcholine Erastin/DMSO: 0.8307
acetylcholine log2 (Erastin/DMSO): −0.2676
aconitate Erastin/DMSO: 1.036
aconitate log2 (Erastin/DMSO): 0.05158
adenine Erastin/DMSO: 1.254
adenine log2 (Erastin/DMSO): 0.3261
adenosine Erastin/DMSO: 1.376
adenosine log2 (Erastin/DMSO): 0.4605
adipate Erastin/DMSO: 1.091
adipate log2 (Erastin/DMSO): 0.1256
alanine Erastin/DMSO: 1.061
alanine log2 (Erastin/DMSO): 0.0857
allantoin Erastin/DMSO: 0.9512
allantoin log2 (Erastin/DMSO): −0.07213
alpha-glycerophosphate Erastin/DMSO: 0.7556
alpha-glycerophosphate log2 (Erastin/DMSO): −0.4043
alpha-glycerophosphocholine Erastin/DMSO: 0.2194
alpha-glycerophosphocholine log2 (Erastin/DMSO): −2.188
alpha-ketoglutarate Erastin/DMSO: 0.9867
alpha-ketoglutarate log2 (Erastin/DMSO): −0.01926
arginine Erastin/DMSO: 0.9866
arginine log2 (Erastin/DMSO): −0.01943
ascorbate Erastin/DMSO: 1.196
ascorbate log2 (Erastin/DMSO): 0.2586
asparagine Erastin/DMSO: 1.069
asparagine log2 (Erastin/DMSO): 0.09662
aspartate Erastin/DMSO: 1.017
aspartate log2 (Erastin/DMSO): 0.02452
betaine Erastin/DMSO: 0.9528
betaine log2 (Erastin/DMSO): −0.06976
cAMP Erastin/DMSO: 1.266
cAMP log2 (Erastin/DMSO): 0.3404
carnitine Erastin/DMSO: 0.802
carnitine log2 (Erastin/DMSO): −0.3183
carnosine Erastin/DMSO: 0.9657
carnosine log2 (Erastin/DMSO): −0.0503
choline Erastin/DMSO: 0.8139
choline log2 (Erastin/DMSO): −0.2971
cis/trans hydroxyproline Erastin/DMSO: 1.099
cis/trans hydroxyproline log2 (Erastin/DMSO): 0.1366
citrate Erastin/DMSO: 0.974
citrate log2 (Erastin/DMSO): −0.03805
citrulline Erastin/DMSO: 1.036
citrulline log2 (Erastin/DMSO): 0.05057
cotinine Erastin/DMSO: 0.9037
cotinine log2 (Erastin/DMSO): −0.146
creatine Erastin/DMSO: 0.8675
creatine log2 (Erastin/DMSO): −0.205
creatinine Erastin/DMSO: 0.972
creatinine log2 (Erastin/DMSO): −0.04091
cystamine Erastin/DMSO: 1.09
cystamine log2 (Erastin/DMSO): 0.1248
cystathionine Erastin/DMSO: 1.263
cystathionine log2 (Erastin/DMSO): 0.3368
cytidine Erastin/DMSO: 6.079
cytidine log2 (Erastin/DMSO): 2.604
cytosine Erastin/DMSO: 0.8863
cytosine log2 (Erastin/DMSO): −0.1741
dCMP Erastin/DMSO: 0.9184
dCMP log2 (Erastin/DMSO): −0.1228
dGMP Erastin/DMSO: 1.052
dGMP log2 (Erastin/DMSO): 0.07275
dTMP Erastin/DMSO: 0.6985
dTMP log2 (Erastin/DMSO): −0.5178
dUMP Erastin/DMSO: 0.6787
dUMP log2 (Erastin/DMSO): −0.5592
dimethylglycine Erastin/DMSO: 0.9338
dimethylglycine log2 (Erastin/DMSO): −0.09885
folate Erastin/DMSO: 1.032
folate log2 (Erastin/DMSO): 0.04552
fumarate Erastin/DMSO: 0.9822
fumarate log2 (Erastin/DMSO): −0.02598
glucose Erastin/DMSO: 0.9717
glucose log2 (Erastin/DMSO): −0.04147
glucose/fructose/galactose Erastin/DMSO: 1.011
glucose/fructose/galactose log2 (Erastin/DMSO): 0.01526
glucuronate Erastin/DMSO: 0.61
glucuronate log2 (Erastin/DMSO): −0.7132
glutamate Erastin/DMSO: 1.019
glutamate log2 (Erastin/DMSO): 0.02762
glutamine Erastin/DMSO: 1.015
glutamine log2 (Erastin/DMSO): 0.02096
glutathione oxidized Erastin/DMSO: 0.3235
glutathione oxidized log2 (Erastin/DMSO): −1.628
glutathione reduced Erastin/DMSO: 0.007019
glutathione reduced log2 (Erastin/DMSO): −7.154
glyceraldehyde-3-phosphate Erastin/DMSO: 1.192
glyceraldehyde-3-phosphate log2 (Erastin/DMSO): 0.2529
glycerol Erastin/DMSO: 1.058
glycerol log2 (Erastin/DMSO): 0.08176
glycine Erastin/DMSO: 0.9723
glycine log2 (Erastin/DMSO): −0.04055
glycochenodeoxycholate Erastin/DMSO: 1.067
glycochenodeoxycholate log2 (Erastin/DMSO): 0.09335
glycocholate Erastin/DMSO: 0.9975
glycocholate log2 (Erastin/DMSO): −0.003654
glycodeoxycholate Erastin/DMSO: 1.054
glycodeoxycholate log2 (Erastin/DMSO): 0.07552
guanosine Erastin/DMSO: 4.51
guanosine log2 (Erastin/DMSO): 2.173
hippurate Erastin/DMSO: 1.005
hippurate log2 (Erastin/DMSO): 0.007657
histamine Erastin/DMSO: 0.9526
histamine log2 (Erastin/DMSO): −0.07002
histidine Erastin/DMSO: 0.9779
histidine log2 (Erastin/DMSO): −0.03228
hydroxyphenylacetate Erastin/DMSO: 1.024
hydroxyphenylacetate log2 (Erastin/DMSO): 0.03431
hypoxanthine Erastin/DMSO: 0.9819
hypoxanthine log2 (Erastin/DMSO): −0.02629
indoxylsulfate Erastin/DMSO: 0.7913
indoxylsulfate log2 (Erastin/DMSO): −0.3377
inosine Erastin/DMSO: 1.867
inosine log2 (Erastin/DMSO): 0.9005
isocitrate Erastin/DMSO: 1.051
isocitrate log2 (Erastin/DMSO): 0.07189
isoleucine Erastin/DMSO: 0.9526
isoleucine log2 (Erastin/DMSO): −0.07
isomer_of_erythrose-4-phosphate Erastin/DMSO: 0.5887
isomer_of_erythrose-4-phosphate log2 (Erastin/DMSO): −0.7644
kynurenic acid Erastin/DMSO: 0.8322
kynurenic acid log2 (Erastin/DMSO): −0.265
kynurenine Erastin/DMSO: 1.04
kynurenine log2 (Erastin/DMSO): 0.05699
lactate Erastin/DMSO: 0.884
lactate log2 (Erastin/DMSO): −0.1779
leucine Erastin/DMSO: 0.9497
leucine log2 (Erastin/DMSO): −0.07444
lysine Erastin/DMSO: 0.9654
lysine log2 (Erastin/DMSO): −0.05081
malate Erastin/DMSO: 1.143
malate log2 (Erastin/DMSO): 0.1934
maleate/3-methyl-2-oxobutanoate Erastin/DMSO: 0.9484
maleate/3-methyl-2-oxobutanoate log2 (Erastin/DMSO): −0.07647
malonate Erastin/DMSO: 1.025
malonate log2 (Erastin/DMSO): 0.03595
methionine Erastin/DMSO: 0.9702
methionine log2 (Erastin/DMSO): −0.04361
niacinamide Erastin/DMSO: 0.9289
niacinamide log2 (Erastin/DMSO): −0.1065
nicotinate Erastin/DMSO: 1.085
nicotinate log2 (Erastin/DMSO): 0.1179
ornithine Erastin/DMSO: 0.9482
ornithine log2 (Erastin/DMSO): −0.07676
orotate Erastin/DMSO: 1.138
orotate log2 (Erastin/DMSO): 0.1864
oxalate Erastin/DMSO: 1.019
oxalate log2 (Erastin/DMSO): 0.02659
pantothenate Erastin/DMSO: 1.194
pantothenate log2 (Erastin/DMSO): 0.2564
phenylacetylglycine Erastin/DMSO: 1.135
phenylacetylglycine log2 (Erastin/DMSO): 0.1828
phenylalanine Erastin/DMSO: 1.005
phenylalanine log2 (Erastin/DMSO): 0.007013
phosphocholine Erastin/DMSO: 0.5252
phosphocholine log2 (Erastin/DMSO): −0.9291
phosphocreatine Erastin/DMSO: 1.173
phosphocreatine log2 (Erastin/DMSO): 0.2302
phosphoglycerate Erastin/DMSO: 0.9848
phosphoglycerate log2 (Erastin/DMSO): −0.02206
phosphotyrosine Erastin/DMSO: 0.6533
phosphotyrosine log2 (Erastin/DMSO): −0.6143
pimelate/3-methyladipate Erastin/DMSO: 1.021
pimelate/3-methyladipate log2 (Erastin/DMSO): 0.03006
proline Erastin/DMSO: 1.086
proline log2 (Erastin/DMSO): 0.1195
proprionate Erastin/DMSO: 1.092
proprionate log2 (Erastin/DMSO): 0.1269
pyruvate Erastin/DMSO: 1.283
pyruvate log2 (Erastin/DMSO): 0.3592
quinolinate Erastin/DMSO: 1.015
quinolinate log2 (Erastin/DMSO): 0.02178
ribose-5-P Erastin/DMSO: 1.113
ribose-5-P log2 (Erastin/DMSO): 0.155
ribulose-5-P Erastin/DMSO: 1.051
ribulose-5-P log2 (Erastin/DMSO): 0.07112
salicylurate Erastin/DMSO: 0.9637
salicylurate log2 (Erastin/DMSO): −0.05339
sebacate Erastin/DMSO: 0.9419
sebacate log2 (Erastin/DMSO): −0.08641
serine Erastin/DMSO: 1.053
serine log2 (Erastin/DMSO): 0.07514
serotonin Erastin/DMSO: 0.7924
serotonin log2 (Erastin/DMSO): −0.3357
sorbitol Erastin/DMSO: 0.9709
sorbitol log2 (Erastin/DMSO): −0.04258
suberate Erastin/DMSO: 1.003
suberate log2 (Erastin/DMSO): 0.004641
succinate/methylmalonate Erastin/DMSO: 1.008
succinate/methylmalonate log2 (Erastin/DMSO): 0.01178
sucrose Erastin/DMSO: 1.408
sucrose log2 (Erastin/DMSO): 0.4939
taurine Erastin/DMSO: 0.8259
taurine log2 (Erastin/DMSO): −0.276
taurochenodeoxycholate Erastin/DMSO: 1.181
taurochenodeoxycholate log2 (Erastin/DMSO): 0.2399
taurocholate Erastin/DMSO: 1.108
taurocholate log2 (Erastin/DMSO): 0.1484
taurodeoxycholate Erastin/DMSO: 1.168
taurodeoxycholate log2 (Erastin/DMSO): 0.2237
taurolithocholate Erastin/DMSO: 1.093
taurolithocholate log2 (Erastin/DMSO): 0.1287
thiamine Erastin/DMSO: 0.9385
thiamine log2 (Erastin/DMSO): −0.09157
threonine Erastin/DMSO: 0.9924
threonine log2 (Erastin/DMSO): −0.01095
thymidine Erastin/DMSO: 1.402
thymidine log2 (Erastin/DMSO): 0.4879
thymine Erastin/DMSO: 1.257
thymine log2 (Erastin/DMSO): 0.3302
thyroxine Erastin/DMSO: 0.8859
thyroxine log2 (Erastin/DMSO): −0.1748
triiodothyronine Erastin/DMSO: 0.8066
triiodothyronine log2 (Erastin/DMSO): −0.31
trimethylamine-N-oxide Erastin/DMSO: 1.222
trimethylamine-N-oxide log2 (Erastin/DMSO): 0.2895
tryptophan Erastin/DMSO: 0.9911
tryptophan log2 (Erastin/DMSO): −0.01285
tyrosine Erastin/DMSO: 0.9821
tyrosine log2 (Erastin/DMSO): −0.02607
urate Erastin/DMSO: 1.018
urate log2 (Erastin/DMSO): 0.0257
uridine Erastin/DMSO: 4.369
uridine log2 (Erastin/DMSO): 2.127
valine Erastin/DMSO: 0.9822
valine log2 (Erastin/DMSO): −0.02594
xanthine Erastin/DMSO: 1.027
xanthine log2 (Erastin/DMSO): 0.03817
xanthosine Erastin/DMSO: 0.98
xanthosine log2 (Erastin/DMSO): −0.02909
